From patent US20190127359A1, “Compounds & Methods for the Enhanced Degradation of Targeted Proteins & Other Polypeptides by an E3 Ubiquitin Ligase” (YALE UNIVERSITY, priority 2012, published 2019) come the findings set out here.

Like-named read-outs stand apart in the source and are kept apart here.

The experiment deals with VHL (Homo sapiens, UniProt P40337). In words: Fluorescence polarization competition assay (HIF-1α peptide FP displacement).

What is called IC50 is the midpoint of a concentration-inhibition curve. As for `Cc1cc(CC(=O)N2C[C@H](O)C[C@H]2C(=O)NCc2ccc(N(C)C)cc2)on1` [VL018], the IC50 (IC50 (μM) 10% DMSO, 10% DMSO) came out at 280 µM.
Still for that read-out and setting: the same measure for `O=C(NCc1ccc(Cl)cc1)[C@@H]1C[C@@H](O)CN1C(=O)c1ccc(Cl)cc1` [VL074]: 42.9 µM; for `Cc1cc(CC(=O)N2C[C@H](O)C[C@H]2C(=O)NCc2ccc(C(=O)OCC3CC3)cc2)on1` [VL091]: 23 µM; for `O=C(Nc1ccc(Br)cc1F)[C@@H]1C[C@@H](O)CN1S(=O)(=O)c1ccc2ccccc2c1` [VL001]: above 1000 µM.
Where the note is “IC50 (μM) 10% DMSO, 10% DMSO”, `Cc1cc(CC(=O)N2C[C@H](O)C[C@H]2C(=O)NCc2ccncc2)on1` [VL037] returned a 50% inhibitory concentration (IC50) of 88.8 µM.
`O=C(NCc1ccc(Cl)cc1)[C@@H]1C[C@@H](O)CN1S(=O)(=O)c1cccc2cccnc12` [VL130]: the IC50 runs as follows: (IC50 (μM) 1% DMSO, 1% DMSO) above 1000 µM; (IC50 (μM) 10% DMSO, 10% DMSO) above 1000 µM.
In the case of `CNC(=O)c1cc(Oc2ccc(NC(=O)[C@@H]3C[C@@H](O)CN3C(=O)Cc3cc(C)no3)cc2)ccn1` [VL027], the IC50 (IC50 (μM) 10% DMSO, 10% DMSO) is above 1000 µM.
On the same count and under the same terms, under `CC(=O)Nc1ccc(Br)cc1C(=O)N1C[C@H](O)C[C@H]1C(=O)NCc1ccc(Cl)cc1` [VL083] stands above 1000 µM; under `Cc1cc(CC(=O)N2C[C@H](O)C[C@H]2C(=O)NCc2ccc(Cl)c(C(F)(F)F)c2)on1` [VL023], 589 µM.
In the case of `Cc1cc(CC(=O)N2C[C@H](O)C[C@H]2C(=O)NCc2ccc(-c3cccnc3)cc2)on1` [VL159], the IC50 runs as follows: (IC50 (μM) 1% DMSO, 1% DMSO) 54 µM; (IC50 (μM) 10% DMSO, 10% DMSO) 66.9 µM.
Under “IC50 (μM) 10% DMSO, 10% DMSO”, `Cc1c(C(=O)N2C[C@H](O)C[C@H]2C(=O)NCc2ccc(Cl)cc2)cccc1[N+](=O)[O-]` [VL066] had an IC50 of 72.4 µM.
As for `CS(=O)(=O)N1C[C@H](O)C[C@H]1C(=O)NCc1cccc(Cl)c1` [VL007], the “IC50 (μM) 10% DMSO” value (10% DMSO) is “Inactive”.
Turning to `Cc1cc(CC(=O)N2C[C@H](O)C[C@H]2C(=O)NCc2ccc(-c3cncs3)cc2)on1` [VL155], the IC50 was 14 µM (IC50 (μM) 1% DMSO, 1% DMSO) and 17.4 µM (IC50 (μM) 10% DMSO, 10% DMSO).
Take `COc1cccc(CNC(=O)[C@@H]2C[C@@H](O)CN2C(=O)Cc2cc(C)no2)c1` [VL024]: under “IC50 (μM) 10% DMSO, 10% DMSO”, the half-maximal inhibitory concentration (IC50) turned out to be 511 µM.
On to `Cc1cc(CC(=O)N2C[C@H](O)C[C@H]2C(=O)NCc2ccc(-c3cccn3C)cc2)on1` [VL119], for which the half-inhibitory concentration (IC50) reads like this: (IC50 (μM) 1% DMSO, 1% DMSO) 33 µM; (IC50 (μM) 10% DMSO, 10% DMSO) 17.8 µM.
`N#Cc1cc(S(=O)(=O)N2C[C@H](O)C[C@H]2C(=O)NCc2ccc(Cl)cc2)ccc1F` [VL063]: for the setting “IC50 (μM) 10% DMSO, 10% DMSO”, the half-maximal inhibitory concentration (IC50) was above 1000 µM.
Same read-out and setting: the same measure for `Cc1cc(CC(=O)N2C[C@H](O)C[C@H]2C(=O)NCCN2CCOCC2)on1` [VL015]: above 1000 µM.
`O=C(NCc1ccc(-c2ccccc2)cc1)[C@@H]1C[C@@H](O)CN1Cc1ccccc1Cl` [VL143] had a concentration for half-maximal inhibition (IC50) (IC50 (μM) 1% DMSO, 1% DMSO) above 1000 µM and an IC50 (IC50 (μM) 10% DMSO, 10% DMSO) above 1000 µM.
As to `Cc1cc(CC(=O)N2C[C@H](O)C[C@H]2C(=O)NCc2ccc(C(=O)CC(C)C)cc2)on1` [VL090], the IC50 (IC50 (μM) 10% DMSO, 10% DMSO) was 45.2 µM.
Regarding `Cc1cc(CC(=O)N2C[C@H](O)C[C@H]2C(=O)NCc2ccc(-c3ccn[nH]3)cc2)on1` [VL160], the concentration for half-maximal inhibition (IC50) (IC50 (μM) 1% DMSO, 1% DMSO) is 9 µM and the IC50 (IC50 (μM) 10% DMSO, 10% DMSO) was 12.1 µM.
For `CC(=O)O[C@@H]1C[C@@H](C(=O)NCc2ccc(-c3cnco3)cc2)N(C(=O)Cc2cc(C)no2)C1` [VL114], the “IC50 (μM) 1% DMSO” value (1% DMSO) is reported as “Inactive”. The “IC50 (μM) 10% DMSO” value (10% DMSO) is “Inactive”.
As to `Cc1cc(CC(=O)N2C[C@H](O)C[C@H]2C(=O)NCc2cccc(Cl)c2)on1` [VL004, (2S,4R)—N-(3-chlorobenzyl)-4-hydroxy-1-(2-(3-methylisoxazol-5-yl)acetyl)pyrrolidine-2-carboxamide], the IC50 (IC50 (μM) 10% DMSO, 10% DMSO) turned out to be 123 µM and the IC50 (read-out: IC50 (μM) 1% DMSO, 1% DMSO) is 117 µM.
In turn, `COc1ccc(C(=O)N2C[C@H](O)C[C@H]2C(=O)NCc2ccc(Cl)cc2)cc1OC` [VL069] yielded an IC50 (IC50 (μM) 10% DMSO, 10% DMSO) of 23.8 µM.
For `CS(=O)(=O)N1C[C@H](O)C[C@H]1C(=O)NCCc1ccc(O)cc1` [VL006], the “IC50 (μM) 10% DMSO” value (10% DMSO) was “Inactive”.
`Cc1nc(S)sc1CC(=O)N1C[C@H](O)C[C@H]1C(=O)NCc1ccc(Cl)cc1` [VL106] had an IC50 (IC50 (μM) 10% DMSO, 10% DMSO) above 1000 µM.
`Cc1cc(CC(=O)N2C[C@H](O)C[C@H]2C(=O)NCc2ccc(N3CCCCC3)cc2)on1` [VL110]: the IC50 (IC50 (μM) 10% DMSO, 10% DMSO) was determined as 138 µM.
